≈ marks a conversion by molar mass, not a printed value. Read-outs that look alike come from different tables or passages of the source.
How the values were obtained:
[1] = target: MraY from C. bolteae (Enterocloster bolteae, UniProt R0BTE9); assay: Fluorescence-based in vitro MraY assay, MraY from C. bolteae; format: biochemical, Clostridium bolteae; settings: IC50 ± SD
[2] = system: E. coli DH5α strain; assay: Minimal inhibitory concentration against growth of E. coli DH5α; format: cell-based; settings: Escherichia coli, read-out: MIC (E. coli DH5α)
[3] = system: E. coli efflux-deficient ΔtolC mutant; assay: Minimal inhibitory concentration against growth of E. coli ΔtolC; format: cell-based
[4] = target: T1, MraY from Aquifex aeolicus (Aquifex aeolicus, UniProt O66465); format: biochemical
T1 sequence (O66465 1-359): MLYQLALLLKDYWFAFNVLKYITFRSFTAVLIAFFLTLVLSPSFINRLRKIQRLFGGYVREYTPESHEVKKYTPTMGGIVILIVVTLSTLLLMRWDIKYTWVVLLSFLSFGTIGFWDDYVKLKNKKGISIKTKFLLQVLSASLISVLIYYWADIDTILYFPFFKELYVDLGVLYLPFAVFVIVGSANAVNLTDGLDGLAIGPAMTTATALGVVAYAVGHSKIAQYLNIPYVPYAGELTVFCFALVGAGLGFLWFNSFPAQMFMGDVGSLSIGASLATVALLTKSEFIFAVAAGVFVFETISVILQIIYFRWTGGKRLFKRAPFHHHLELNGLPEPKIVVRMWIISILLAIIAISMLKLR

[5] = system: S. aureus subsp. aureus (Newman strain); assay: Minimal inhibitory concentration against growth of S. aureus; format: cell-based
[6] = target: T2, MraY from S. aureus (Staphylococcus aureus, UniProt Q2FZ93); assay: biochemical; format: biochemical
T2 sequence (Q2FZ93 1-321): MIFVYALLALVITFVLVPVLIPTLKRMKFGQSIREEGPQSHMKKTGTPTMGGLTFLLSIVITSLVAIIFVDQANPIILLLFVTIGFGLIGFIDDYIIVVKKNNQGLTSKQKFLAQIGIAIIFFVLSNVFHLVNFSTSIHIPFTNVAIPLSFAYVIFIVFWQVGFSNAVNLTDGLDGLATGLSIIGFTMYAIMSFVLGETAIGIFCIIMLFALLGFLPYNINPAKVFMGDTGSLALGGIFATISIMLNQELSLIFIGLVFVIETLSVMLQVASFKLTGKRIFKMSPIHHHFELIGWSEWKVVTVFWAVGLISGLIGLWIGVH

[7] = read-out: IC50 (MraY C. bolteae crude), protein in crude membranes
[8] = read-out: IC50 (MraY C. bolteae solubil.), protein in solubilized and purified form
[9] = read-out: IC50 (MraY Aquifex aeolicus), solubilized and purified form, IC50 ± SD
[10] = read-out: IC50 (MraY S. aureus), crude membranes, IC50 ± SD
[11] = IC50 (MraY C. bolteae crude), protein in crude membranes
[12] = IC50 (MraY C. bolteae solubil.), protein in solubilized and purified form

SMILES | IC50 [1, 7] | IC50 [1, 8] | MIC [2] | MIC (E. coli ΔtolC) [3] | IC50 [4, 9] | antibacterial activity against S. aureus in words [5] | IC50 [6, 10] | IC50 [1, 11] | IC50 [1, 12] | IC50 [6] | IC50 [4] | fold lower inhibitory activity than C1 6 (Aquifex aeolicus) ([4]; solubilized Aquifex aeolicus protein, relative to C1 6) | fold difference in MraY inhibition between C1 6 and D1 7 ([6]; crude membranes only (S. aureus and C. bolteae MraY)) | fold less active MraY inhibitor than C1 6 (S. aureus) ([6]; crude membranes, relative to C1 6)
CO[C@H]1[C@H](O[C@H]([C@H]2O[C@@H](n3ccc(=O)[nH]c3=O)[C@H](O)[C@@H]2O)[C@H](NCCCNC(=O)[C@@H](NC(=O)[C@@H](NC(=O)N[C@H](C(=O)O)C(C)C)[C@@H]2CCNC(=N)N2)[C@@H](OC(=O)CCCCCCCCCCCCN(O)C(=N)N)C(C)C)C(=O)O)O[C@H](CN)[C@H]1O [A1 3, muraymycin A1] | 0.017 nM | 0.16 ± 0.04 nM | > 32 µg/mL | 2 µg/mL (≈ 1.65 µM) | 0.11 ± 0.02 nM | only congener with notable activity against S. aureus | 0.027 ± 0.003 nM |  |  |  |  |  |  | 
CO[C@H]1[C@H](O[C@H]([C@H]2O[C@@H](n3ccc(=O)[nH]c3=O)[C@H](O)[C@@H]2O)[C@H](NCCCNC(=O)[C@@H](NC(=O)[C@@H](NC(=O)N[C@H](C(=O)O)C(C)C)[C@@H]2CCN=C(N)N2)[C@@H](OC(=O)CCCCCCC(C)C)C(C)C)C(=O)O)O[C@H](CN)[C@H]1O [B2 4, muraymycin B2] | 0.0083 nM | 0.14 ± 0.01 nM | > 32 µg/mL | 1 µg/mL (≈ 0.909 µM) | 0.11 ± 0.01 nM |  | 0.01 ± 0.002 nM |  |  |  |  |  |  | 
CO[C@H]1[C@H](O[C@H]([C@H]2O[C@@H](n3ccc(=O)[nH]c3=O)[C@H](O)[C@@H]2O)[C@H](NCCCNC(=O)[C@@H](NC(=O)[C@@H](NC(=O)N[C@H](C(=O)O)C(C)C)[C@@H]2CCN=C(N)N2)[C@@H](OC(=O)CCCCC(C)C)C(C)C)C(=O)O)O[C@H](CN)[C@H]1O [B6 5, muraymycin B6] | 0.036 nM | 0.38 ± 0.03 nM | > 32 µg/mL | 1 µg/mL (≈ 0.933 µM) | 0.19 ± 0.02 nM |  | 0.021 ± 0.002 nM |  |  |  |  |  |  | 
CO[C@H]1[C@H](O[C@H]([C@H]2O[C@@H](n3ccc(=O)[nH]c3=O)[C@H](O)[C@@H]2O)[C@H](NCCCNC(=O)[C@@H](NC(=O)[C@@H](NC(=O)N[C@H](C(=O)O)C(C)C)[C@@H]2CCNC(=N)N2)[C@@H](O)C(C)C)C(=O)O)O[C@H](CN)[C@H]1O [C1 6, muraymycin C1] |  |  | > 32 µg/mL | 1 µg/mL (≈ 1.06 µM) |  |  |  | 0.093 nM | 0.45 ± 0.17 nM | 0.016 ± 0.002 nM |  |  |  | 
CO[C@H]1[C@H](O[C@H]([C@H]2O[C@@H](n3ccc(=O)[nH]c3=O)[C@H](O)[C@@H]2O)[C@H](NCCCNC(=O)[C@H](CC(C)C)NC(=O)[C@@H](NC(=O)N[C@H](C(=O)O)C(C)C)[C@@H]2CCNC(=N)N2)C(=O)O)O[C@H](CN)[C@H]1O [D1 7, muraymycin D1] |  |  | > 32 µg/mL | 1 µg/mL (≈ 1.08 µM) |  |  |  | 40 nM | 380 ± 110 nM | 0.48 ± 0.13 nM | 99 ± 30 nM | ca. 280 fold | 30- to 430 fold | ca. 30 fold
CC(C)C[C@H](NC(=O)[C@@H](NC(=O)N[C@H](C(=O)O)C(C)C)[C@@H]1CCNC(=N)N1)C(=O)NCCCN[C@H](C(=O)O)[C@H](O[C@@H]1O[C@H](CN)[C@@H](O)[C@H]1O)[C@H]1O[C@@H](n2ccc(=O)[nH]c2=O)[C@H](O)[C@@H]1O [D2 8, muraymycin D2] |  |  | > 32 µg/mL | 1 µg/mL (≈ 1.09 µM) |  |  |  | 25 nM | 200 ± 30 nM | 0.39 ± 0.11 nM | 46 ± 13 nM |  |  | 
